Key:
[1] = biological target: Beta Secretase enzyme (BACE) (Homo sapiens (Human), UniProt P56817); experiment: In vitro enzymatic BACE FRET assay; type: biochemical; details: read-out: BACE1 Enzyme assay IC50
BACE = BACE (Homo sapiens (Human), UniProt P56817); experiment: In vitro BACE cell-based assay (Aβ40 in conditioned medium, sandwich ELISA)
Cathepsin D (Cat D) = Cathepsin D (Cat D) (Homo sapiens (Human), UniProt P07339); experiment: In vitro enzymatic Cathepsin D (Cat D) FRET assay; type: biochemical; details: read-out: CatD IC50
Cathepsin D (Cat D), sequence (P07339 65-412, species assumed): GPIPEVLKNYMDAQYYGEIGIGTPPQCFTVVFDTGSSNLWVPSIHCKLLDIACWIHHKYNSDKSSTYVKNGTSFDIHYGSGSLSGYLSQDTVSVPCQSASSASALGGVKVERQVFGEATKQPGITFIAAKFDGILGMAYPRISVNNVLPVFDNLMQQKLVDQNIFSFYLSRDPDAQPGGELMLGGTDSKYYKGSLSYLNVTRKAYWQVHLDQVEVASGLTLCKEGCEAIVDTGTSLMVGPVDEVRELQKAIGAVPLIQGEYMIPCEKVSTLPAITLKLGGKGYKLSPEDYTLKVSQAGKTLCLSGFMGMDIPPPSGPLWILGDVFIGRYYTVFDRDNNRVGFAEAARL

Beta Secretase enzyme (BACE), sequence (P56817 46-501): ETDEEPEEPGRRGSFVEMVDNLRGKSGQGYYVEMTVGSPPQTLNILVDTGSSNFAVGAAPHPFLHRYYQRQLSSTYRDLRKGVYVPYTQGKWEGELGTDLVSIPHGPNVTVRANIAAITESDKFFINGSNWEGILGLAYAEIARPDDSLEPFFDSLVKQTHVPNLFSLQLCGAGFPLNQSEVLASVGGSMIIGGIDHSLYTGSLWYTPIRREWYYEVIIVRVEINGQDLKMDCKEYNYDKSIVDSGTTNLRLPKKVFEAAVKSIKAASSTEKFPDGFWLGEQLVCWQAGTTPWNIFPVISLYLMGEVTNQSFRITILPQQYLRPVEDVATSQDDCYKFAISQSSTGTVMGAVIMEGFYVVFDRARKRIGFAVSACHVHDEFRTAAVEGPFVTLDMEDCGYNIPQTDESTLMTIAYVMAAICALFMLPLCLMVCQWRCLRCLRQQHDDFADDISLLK
BACE, sequence (P56817 46-501, species assumed): as the sequence (P56817 46-501) above

SMILES	IC50 [1] [µM]	IC50 (BACE) [µM]	IC50 (Cathepsin D (Cat D)) [µM]
NC1=N[C@@](c2cc(NC(=O)c3nn(C(F)F)cc3Cl)cc(F)c2F)(C(F)F)[C@H]2C[C@H]2O1 [Example 114, N-(3-((1R,5S,6R)-3-amino-5-(difluoromethyl)-2-oxa-4-azabicyclo[4.1.0]hept-3-en-5-yl)-4,5-difluorophenyl)-4-chloro-1-(difluoromethyl)-1H-pyrazole-3-carboxamide]	0.0098	0.0198	158
NC1=N[C@@](CF)(c2cc(NC(=O)c3ccc(Cl)cn3)ccc2F)[C@@H]2C[C@@H]2O1 [Example 118, N-(3-((1S,5R,6S)-3-amino-5-(fluoromethyl)-2-oxa-4-azabicyclo[4.1.0]hept-3-en-5-yl)-4-fluorophenyl)-5-chloropicolinamide]	1.56	0.221	1280
NC1=N[C@@](c2cc(NC(=O)c3ncc(Cl)cn3)ccc2F)(C(F)F)[C@H]2C[C@H]2O1 [Example 119, N-(3-((1R,5S,6R)-3-amino-5-(difluoromethyl)-2-oxa-4-azabicyclo[4.1.0]hept-3-en-5-yl)-4-fluorophenyl)-5-chloropyrimidine-2-carboxamide]	0.0559	0.0524	2990
Cc1nc(OCC(F)(F)F)cnc1C(=O)Nc1ccc(F)c([C@@]2(C(F)F)N=C(N)O[C@@H]3C[C@@H]32)c1 [Example 120, N-(3-((1R,5S,6R)-3-amino-5-(difluoromethyl)-2-oxa-4-azabicyclo[4.1.0]hept-3-en-5-yl)-4-fluorphenyl)-3-methyl-5-(2,2,2-trifluoroethoxy)pyrazine-2-carboxamide]	0.05	0.247	351
Cc1cc(C(F)F)cnc1C(=O)Nc1ccc(Cl)c([C@@]2(CF)N=C(N)O[C@@H]3C[C@@H]32)c1 [Example 122, N-(3-((1R,5S,6R)-3-amino-5-(fluoromethyl)-2-oxa-4-azabicyclo[4.1.0]hept-3-en-5-yl)-4-chlorophenyl)-5-(difluoromethyl)-3-methylpicolinamide]	0.099	0.0148	1070
Cc1cc(C(F)(F)F)cnc1C(=O)Nc1ccc(Cl)c([C@@]2(CF)N=C(N)O[C@@H]3C[C@@H]32)c1 [Example 125, N-(3-((1R,5S,6R)-3-amino-5-(fluoromethyl)-2-oxa-4-azabicyclo[4.1.0]hept-3-en-5-yl)-4-chlorophenyl)-3-methyl-5-(trifluoromethyl) picolinamide]	0.0806	0.0086	> 400
Cc1cc(OC(F)F)cnc1C(=O)Nc1ccc(Cl)c([C@@]2(CF)N=C(N)O[C@@H]3C[C@@H]32)c1 [Example 126, N-(3-((1R,5S,6R)-3-amino-5-(fluoromethyl)-2-oxa-4-azabicyclo[4.1.0]hept-3-en-5-yl)-4-chlorophenyl)-5-(difluoromethoxy)-3-methylpicolinamide]	0.0835	0.0146	1200
COCc1cc(Cl)cnc1C(=O)Nc1ccc(Cl)c([C@@]2(CF)N=C(N)O[C@@H]3C[C@@H]32)c1 [Example 128, N-(3-((1R,5S,6R)-3-amino-5-(fluoromethyl)-2-oxa-4-azabicyclo[4.1.0]hept-3-en-5-yl)-4-chlorophenyl)-5-chloro-3-(methoxymethyl) picolinamide]	0.0508	0.0161	1000
NC1=N[C@@](c2cc(NC(=O)c3ncc(Cl)cc3F)ccc2F)(C(F)F)[C@H]2C[C@H]2O1 [Example 129]	0.0389	0.0403	1280
COc1cnc(C(=O)Nc2ccc(F)c([C@@]3(C(F)F)N=C(N)O[C@@H]4C[C@@H]43)c2)c(C)c1 [Example 131, N-(3-((1R,5S,6R)-3-amino-5-(difluoromethyl)-2-oxa-4-azabicyclo[4.1.0]hept-3-en-5-yl)-4-fluorophenyl)-5-methoxy-3-methylpicolinamide]	0.185	0.0809	342
Cc1cc(NC(=O)c2ncc(C#N)cc2Cl)cc([C@@]2(C(F)F)N=C(N)O[C@@H]3C[C@@H]32)c1F [Example 133]	0.023	0.0158	558
COc1cc(Cl)cnc1C(=O)Nc1cc(C)c(F)c([C@@]2(C(F)F)N=C(N)O[C@@H]3C[C@@H]32)c1 [Example 134, N-(3-((1R,5S,6R)-3-amino-5-(difluoromethyl)-2-oxa-4-azabicyclo[4.1.0]hept-3-en-5-yl)-4-fluoro-5-methylphenyl)-5-chloro-3-methoxypicolinamide]	0.131	0.0604	1110
Cc1cc(NC(=O)c2ncc(Cl)cc2Cl)cc([C@@]2(C(F)F)N=C(N)O[C@@H]3C[C@@H]32)c1F [Example 135, N-(3-((1R,5S,6R)-3-amino-5-(difluoromethyl)-2-oxa-4-azabicyclo[4.1.0]hept-3-en-5-yl)-4-fluoro-5-methylphenyl)-3,5-dichloropicolinamide]	0.0256	0.0199	494
Cc1cc(C#N)cnc1C(=O)Nc1cc(F)c(Cl)c([C@@]2(CF)N=C(N)O[C@@H]3C[C@@H]32)c1 [Example 138, N-(3-((1R,5S,6R)-3-amino-5-(fluoromethyl)-2-oxa-4-azabicyclo[4.1.0]hept-3-en-5-yl)-4-chloro-5-fluorophenyl)-5-cyano-3-methylpicolinamide]	0.0362	0.0151	662
COc1cnc(C(=O)Nc2cc(F)c(F)c([C@@]3(CF)N=C(N)O[C@@H]4C[C@@H]43)c2)cn1 [Example 143, N-(3-((1R,5S,6R)-3-amino-5-(fluoromethyl)-2-oxa-4-azabicyclo[4.1.0]hept-3-en-5-yl)-4,5-difluorophenyl)-5-methoxypyrazine-2-carboxamide]	0.125	0.0221	529
COc1cnc(C(=O)Nc2cc(F)c(F)c([C@]3(CF)N=C(N)O[C@H]4C[C@H]43)c2)cn1 [Example 144, N-(3-((1S,5R,6S)-3-amino-5-(fluoromethyl)-2-oxa-4-azabicyclo[4.1.0]hept-3-en-5-yl)-4,5-difluorophenyl)-5-methoxypyrazine-2-carboxamide]	> 40	4.62	1340
CC(C)Oc1cnc(C(=O)Nc2ccc(F)c([C@@]3(C(F)F)N=C(N)O[C@@H]4C[C@@H]43)c2)cn1 [Example 147, N-(3-((1R,5S,6R)-3-amino-5-(difluoromethyl)-2-oxa-4-azabicyclo[4.1.0]hept-3-en-5-yl)-4-fluorophenyl)-5-isopropoxypyrazine-2-carboxamide]	0.732	1	706
NC1=N[C@@](c2cc(NC(=O)c3csc(C(F)F)n3)ccc2F)(C(F)F)[C@H]2C[C@H]2O1 [Example 149, N-(3-((1R,5S,6R)-3-amino-5-(difluoromethyl)-2-oxa-4-azabicyclo[4.1.0]hept-3-en-5-yl)-4-fluorophenyl)-2-(difluoromethyl)thiazole-4-carboxamide]	0.195	0.152	1700
NC1=N[C@@](c2cc(NC(=O)c3coc(C(F)F)n3)ccc2F)(C(F)F)[C@H]2C[C@H]2O1 [Example 150, N-(3-((1R,5S,6R)-3-amino-5-(difluoromethyl)-2-oxa-4-azabicyclo[4.1.0]hept-3-en-5-yl)-4-fluorophenyl)-2-(difluoromethyl)oxazole-4-carboxamide 2,2,2-trifluoroacetate]	0.0322	0.0182	238
NC1=N[C@@](c2cc(NC(=O)c3coc(C#CC4CC4)n3)ccc2F)(C(F)F)[C@H]2C[C@H]2O1 [Example 151, N-(3-((1R,5S,6R)-3-amino-5-(difluoromethyl)-2-oxa-4-azabicyclo[4.1.0]hept-3-en-5-yl)-4-fluorophenyl)-2-(cyclopropylethynyl) oxazole-4-carboxamide]	24.8	1.07	302
Cn1nc(C(F)F)cc1C(=O)Nc1ccc(F)c([C@@]2(C(F)F)N=C(N)O[C@@H]3C[C@@H]32)c1 [Example 154, N-(3-((1R,5S,6R)-3-amino-5-(difluoromethyl)-2-oxa-4-azabicyclo[4.1.0]hept-3-en-5-yl)-4-fluorophenyl)-3-(difluoromethyl)-1-methyl-1H-pyrazole-5-carboxamide]	0.24	0.109	515
COc1cnc(C(=O)Nc2cc(F)c(Cl)c([C@]3(CF)N=C(N)O[C@H]4C[C@H]43)c2)cn1 [Example 155]	> 40	> 15.6	647
COc1cnc(C(=O)Nc2cc(F)c(Cl)c([C@@]3(CF)N=C(N)O[C@@H]4C[C@@H]43)c2)cn1 [Example 156, N-(3-((1R,5S,6R)-3-amino-5-(fluoromethyl)-2-oxa-4-azabicyclo[4.1.0]hept-3-en-5-yl)-4-chloro-5-fluorophenyl)-5-methoxypyrazine-2-carboxamide]	0.055	0.0199	897
Cc1cc(OC(F)F)cnc1C(=O)Nc1cc(F)c(Cl)c([C@]2(CF)N=C(N)O[C@H]3C[C@H]32)c1 [Example 157, N-(3-((1S,5R,6S)-3-amino-5-(fluoromethyl)-2-oxa-4-azabicyclo[4.1.0]hept-3-en-5-yl)-4-chloro-5-fluorophenyl)-5-(difluoromethoxy)-3-methylpicolinamide]	28.3	> 15.6	396
Cc1cc(OC(F)F)cnc1C(=O)Nc1cc(F)c(Cl)c([C@@]2(CF)N=C(N)O[C@@H]3C[C@@H]32)c1 [Example 158, N-(3-((1R,5S,6R)-3-amino-5-(fluoromethyl)-2-oxa-4-azabicyclo[4.1.0]hept-3-en-5-yl)-4-chloro-5-fluorophenyl)-5-(difluoromethoxy)-3-methylpicolinamide]	0.0403	0.0383	230
